80 compounds from paper PMC12040169 (PLOS Biology, 2025) can be followed below.

Structures are written as SMILES.

This data set can be described thus: in vitro. The note with it: human, hela cells, % viability.

In general, viability refers to a read-out of living cells in per cent, often relative to untreated cells. As to `CCC1CCCCN1C(=O)c1ccccc1OC` (centres unmarked) [CBK083205], the viability at 28.5 h, 10 µM stood at 99.4%.

Consider `CS(=O)(=O)c1ccc(-n2nnnc2CN2CCC3(CCCC3)C2)cc1` [CBK306178], for which the viability at 28.5 h, 10 µM was 89.4%.

Turning to `CC(C)N1CCCC(CNC(=O)C2Cc3cc(Cl)ccc3O2)C1` (centres unmarked) [CBK282686], the viability at 28.5 h, 10 µM was determined as 92.8%.

With `NC(=O)c1nnc2ccc(Cl)cc2c1N` [CBK026161], the viability at 28.5 h, 10 µM turned out to be 89.9%.

On to `COc1ccc(C)cc1S(=O)(=O)Nc1cc(NCCCN2CCOCC2)c2occc2c1` [CBK067837C], for which the viability at 28.5 h, 10 µM was determined as 105%.

`Cc1cccc2sc(NC(=O)C3COc4ccccc4O3)nc12` (centres unmarked) [CBK287367]: the viability at 28.5 h, 10 µM came to 113%.

In the case of `CCn1nc(NC(=O)CCn2c(C(F)F)cc3cccnc32)cc1C` [CBK285072], the viability at 28.5 h, 10 µM amounted to 83.8%.

As for `O=S(=O)(NCc1ccccc1)c1cc(S(=O)(=O)c2ccc(Cl)cc2)ccc1Cl` [CBK263207], the viability at 28.5 h, 10 µM amounted to 109%.

For `Cc1nc2ccc(C(=O)N(C)CCN(C)C)cn2c1N(C)CC1CCCCC1` [CBK145894], the viability at 28.5 h, 10 µM amounted to 96.7%.

For `O=c1cc2nc(-c3ccccc3F)[nH]c(=S)n2[nH]1` [CBK288402], the viability at 28.5 h, 10 µM is 95.5%.

On to `CCCN(C(=O)CCn1c(=O)oc2cc(Cl)ccc21)C1CCNC1` (centres unmarked) [CBK304311C], for which the viability at 28.5 h, 10 µM stood at 90.5%.

With `NS(=O)(=O)c1ccc(C(=O)Nc2cnc(-c3ccc(F)cc3)c(-c3ccsc3)n2)cc1` [CBK036998], the viability at 28.5 h, 10 µM stood at 98.8%.

As for `c1ccc(-n2nnnc2CSc2nc3ccccc3s2)cc1` [CBK266372], the viability at 28.5 h, 10 µM worked out at 102%.

Turning to `Cc1nn(C)c(Cl)c1S(=O)(=O)Nc1nn(Cc2ccc(C#N)cc2)c2ccccc12` [CBK048185], the viability at 28.5 h, 10 µM is 111%.

Take `Cc1ccc(S(=O)(=O)N(CC(=O)Nc2cccnc2)c2cccc(Br)c2)cc1` [CBK264094]: the viability at 28.5 h, 10 µM turned out to be 62.8%.

As for `Cc1cc(S(=O)(=O)Nc2cccc(C(=O)O)c2)c(C)c(S(=O)(=O)c2ccccc2)c1` [CBK263227], the viability at 28.5 h, 10 µM was 88.3%.

On to `O=C(O)CC(C(=O)N1CCOCC1)N1CCCCC1` (centres unmarked) [CBK287074], for which the viability at 28.5 h, 10 µM turned out to be 98.7%.

For the compound `COc1cc(OC)cc(C(=O)Nc2nnc(C(F)(F)F)s2)c1` [CBK099828], the viability at 28.5 h, 10 µM was 88.7%.

For `CCc1ccc(OCC(=O)Nc2ccc3oc(-c4ccc(F)cc4Cl)nc3c2)cc1` [CBK265010], the viability at 28.5 h, 10 µM is 100%.

As to `Cn1[nH]c(COC(C)(C)C)c(Cc2c(Cl)cccc2Cl)c1=O` [CBK093521], the viability at 28.5 h, 10 µM was 99.4%.

Take `COc1cc(/C=N/NC(=O)CCn2c3ccc(Cl)cc3c3cc(Cl)ccc32)ccc1O` [CBK262351]: the viability at 28.5 h, 10 µM worked out at 112%.

As for `O=C(O)c1cccc(CSCC(=O)N2CCC(Cc3ccccc3)CC2)c1` [CBK296675], the viability at 28.5 h, 10 µM amounted to 102%.

With `Cc1cnc(CNC(=O)N2CCN(c3ccc(F)cc3)CC2)cn1` [CBK156392], the viability at 28.5 h, 10 µM is 93.7%.

Consider `CCc1nnc(NS(=O)(=O)c2ccc(N/C=C3\C(=O)N(c4ccc(Cl)cc4)N=C3C)cc2)s1` [CBK262416], for which the viability at 28.5 h, 10 µM is 110%.

Take `Cc1ccc(Cn2nc(C(=O)NCCc3c[nH]c4ccccc34)c3ccccc32)cc1` [CBK047830]: the viability at 28.5 h, 10 µM (bulk resorufin, single well) turned out to be 98.7%.

As for `Cc1cc(C)nc(N(C#N)CC(=O)c2ccc(Br)cc2)n1` [CBK266562], the viability at 28.5 h, 10 µM was determined as 91.3%.

On to `CCOc1cccc(-c2cn3ccnc3c(N(C)CCN(C)C)n2)c1` [CBK066569], for which the viability at 28.5 h, 10 µM was 89.7%.

Consider `CCC1(CC)OC(NCc2ccccc2)=NC1=O` [CBK122636], for which the viability at 28.5 h, 10 µM worked out at 86.2%.

Regarding `CS(=O)(=O)N1CCN(Cc2cc(Br)ccc2O)CC1` [CBK263620G], the viability at 28.5 h, 10 µM worked out at 93.9%.

For the compound `Cc1cc(C)nc(NC(=O)NS(=O)(=O)Nc2ccccc2Cl)n1` [CBK260912], the viability at 28.5 h, 10 µM is 102%.

Consider `Brc1ccc(-n2cc(-c3ccccc3)c3c(NCc4ccccn4)ncnc32)cc1` [CBK266427], for which the viability at 28.5 h, 10 µM came to 104%.

On to `COc1ccc(CNC(=O)Cn2nc3c(SCc4ccc(Cl)cc4)nccn3c2=O)cc1` [CBK300541], for which the viability at 28.5 h, 10 µM was determined as 90.5%.

`CC(NC(=O)c1ncoc1-c1ccccc1F)c1ccccn1` (centres unmarked) [CBK282402]: the viability at 28.5 h, 10 µM was 91.4%.

On to `CC(C)(C)N1C(=O)c2ccc(C(=O)Nc3ccccc3C(=O)O)cc2C1=O` [CBK287004], for which the viability at 28.5 h, 10 µM amounted to 112%.

Take `CN1CCCC(C(=O)Nc2cnc(-c3cccc(C(F)(F)F)c3)c(-c3cccnc3)n2)C1` (centres unmarked) [CBK036787]: the viability at 28.5 h, 10 µM is 87.2%.

On to `CSCCCNC(=O)N1CCN(c2ccccc2)CC1` [CBK155170], for which the viability at 28.5 h, 10 µM turned out to be 96.5%.

Regarding `COc1cc(OC)cc(C(=O)N(CCC#N)Cc2ccco2)c1` [CBK305133], the viability at 28.5 h, 10 µM was 96.3%.

With `OC(CNCC1COc2ccccc2O1)C(F)(F)F` (centres unmarked) [CBK074834], the viability at 28.5 h, 10 µM was 102%.

On to `Cc1nn(C)c(Cl)c1S(=O)(=O)N1CCN(C)CC1` [CBK062426], for which the viability at 28.5 h, 10 µM is 106%.

In the case of `O=C(CCS(=O)(=O)Cc1ccccc1)Nc1cc(C(F)(F)F)ccc1Cl` [CBK268399], the viability at 28.5 h, 10 µM is 108%.

In the case of `Clc1ccc(-c2nn[nH]n2)c(Cl)c1` [CBK018932], the viability at 28.5 h, 10 µM came to 89.7%.

For `COc1cc(OC)cc(C(=O)Nc2ccc(C(=O)c3ccccc3)cc2)c1` [CBK098732], the viability at 28.5 h, 10 µM is 106%.

With `CCCCCC1/C(=N\O)CCC1CC(=O)OC` (centres unmarked) [CBK019978], the viability at 28.5 h, 10 µM was found to be 93.9%.

As for `COc1ccc(NC(=O)NS(=O)(=O)c2sc3ccc(Cl)cc3c2C)cc1OC` [CBK156300], the viability at 28.5 h, 10 µM is 91.3%.

Turning to `O=C(O)CCCN1C(=O)C(O)=C(C(=O)c2ccc([N+](=O)[O-])cc2)C1c1ccccc1F` (centres unmarked) [CBK263810], the viability at 28.5 h, 10 µM amounted to 97.8%.

In the case of `O=[N+]([O-])c1ccccc1CN1C[C@H](O)C[C@H]1c1nc(-c2ccncc2)no1` [CBK288839], the viability at 28.5 h, 10 µM was 91.2%.

For `CCc1ccc(OCC(=O)NC(=S)Nc2cccc3nsnc23)cc1` [CBK267173], the viability at 28.5 h, 10 µM was 100%.

Take `O=C(CSc1ccc(Cl)cc1)Nc1cccc(-c2nc3ncccc3o2)c1` [CBK264989]: the viability at 28.5 h, 10 µM was 105%.

On to `Cc1cc(C(=O)CSc2nnnn2-c2ccc(O)cc2)c(C)n1Cc1ccc(F)cc1` [CBK297081], for which the viability at 28.5 h, 10 µM is 98.8%.

In the case of `COc1cc(CNc2nc(-c3cccc4ccccc34)cn3ccnc23)cc(OC)c1OC` [CBK037397], the viability at 28.5 h, 10 µM was found to be 112%.

For `N#Cc1ccc(CNC(=O)N2CCCC(C(=O)O)C2)cc1` (centres unmarked) [CBK161352], the viability at 28.5 h, 10 µM amounted to 89.5%.

`O=C1CCC[C@]2(CN(Cc3ccccc3)C[C@H]2c2cccnc2)N1` [CBK283349]: the viability at 28.5 h, 10 µM amounted to 96.1%.

Regarding `O=C(NCc1ccc(N2CCCC2=O)cc1)c1cc(Br)ccc1O` [CBK296614], the viability at 28.5 h, 10 µM worked out at 91.2%.

Consider `c1ccc(C(Oc2nccnc2-c2ccc3c(c2)OCO3)c2ccccc2)cc1` [CBK106707], for which the viability at 28.5 h, 10 µM stood at 103%.

As to `c1ccc2c(c1)OCC(COc1ccnc(N3CCCN(CCN4CCOCC4)CC3)n1)O2` (centres unmarked) [CBK083976], the viability at 28.5 h, 10 µM came to 116%.

With `Cc1ccc(N(CC(=O)Nc2cccc3ccccc23)S(=O)(=O)c2ccc(F)cc2)cc1` [CBK262707], the viability at 28.5 h, 10 µM worked out at 94.7%.

Turning to `Cc1ccc(Oc2nnnn2-c2ccccc2)c(Br)c1` [CBK002827], the viability at 28.5 h, 10 µM was determined as 106%.

For `O=C(NC(c1ccccc1)c1ccco1)C1CCN(CCc2c[nH]c3ccccc23)CC1` (centres unmarked) [CBK148290], the viability at 28.5 h, 10 µM was determined as 100%.

On to `Cc1cc(C(=O)N2CCC(Oc3nccn(Cc4ccc(S(C)(=O)=O)cc4)c3=O)CC2)ccc1Cl` [CBK161883], for which the viability at 28.5 h, 10 µM amounted to 92.6%.

Consider `O=C(Nc1ccc(N2CCNCC2)nc1)c1cccs1` [CBK029430T], for which the viability at 28.5 h, 10 µM was determined as 111%.

For `COC(=O)c1ccc(/C=C/C2=CCN(C)CC2)cc1` [CBK283744], the viability at 28.5 h, 10 µM came out at 94.5%.

For `CCN(CC)C(=O)Cn1nc2c(C)cc3ccccc3n2c1=O` [CBK283879], the viability at 28.5 h, 10 µM is 84.1%.

For the compound `O=C(CC1NC(=O)NC1=O)Nc1ccc(C(=O)O)cc1` (centres unmarked) [CBK267355], the viability at 28.5 h, 10 µM came out at 99.1%.

For the compound `Cc1nn(C)c(C)c1CCC(=O)N1CCCCC1c1ncc(-c2cccc(F)c2)[nH]1` (centres unmarked) [CBK291150], the viability at 28.5 h, 10 µM was determined as 89.9%.

In the case of `CCCN(Cc1ccoc1)CC1CC1` [CBK018931], the viability at 28.5 h, 10 µM worked out at 94.6%.

Consider `O=C1Nc2cc(Cl)ccc2C(=O)N2CCN(C(=O)C3CCCCC3)C[C@H]12` [CBK289586], for which the viability at 28.5 h, 10 µM came out at 87.1%.

`CC(C)c1ccc(S(=O)(=O)N2CCN(c3ccc(C#N)cc3)CC2)cc1` [CBK044404]: the viability at 28.5 h, 10 µM was 97.3%.

In the case of `CCCS(=O)(=O)NC1CC(C)(C)Cc2c1cnn2-c1ccc(F)cc1` (centres unmarked) [CBK306770], the viability at 28.5 h, 10 µM was 113%.

`O=C1NC(=O)N(c2ccc(O)cc2)C(=O)/C1=C/c1cc(Cl)c(OCc2ccccc2)c(Cl)c1` [CBK265385]: the viability at 28.5 h, 10 µM (bulk resorufin, single well) was found to be 78.1%.

Take `Cc1nn(C)c(C)c1CNC(=O)N1CCN(CC(F)F)CC1` [CBK304249]: the viability at 28.5 h, 10 µM is 102%.

`COc1ccc(CCNC(=O)CCn2cncn2)cc1` [CBK305881]: the viability at 28.5 h, 10 µM was found to be 105%.

In the case of `Cc1nn(CC(C)C(=O)NCCN2CCC(C)CC2)c(C)c1Cl` (centres unmarked) [CBK281570], the viability at 28.5 h, 10 µM stood at 94.2%.

Regarding `CCOC(=O)CCCNC(=O)N1CCN(c2ccccc2)CC1` [CBK155209], the viability at 28.5 h, 10 µM stood at 94.6%.

On to `O=c1[nH][nH]c2nc(O)cc(C(F)(F)F)c12` [CBK027081], for which the viability at 28.5 h, 10 µM turned out to be 109%.

As to `O=C1OC(c2ccco2)=N/C1=C/c1ccccc1OC(=O)c1ccco1` [CBK263980], the viability at 28.5 h, 10 µM worked out at 103%.

With `O=C(C1CCCN(c2ccc3nncn3n2)C1)N1CCOCC1` (centres unmarked) [CBK287901], the viability at 28.5 h, 10 µM came out at 104%.

Regarding `COc1ccc(Cl)cc1NC(=O)NCCN1CCCCC1` [CBK268169], the viability at 28.5 h, 10 µM was 112%.

In the case of `CN1CCN(C(=O)c2[nH]c3ccccc3c2NS(=O)(=O)/C=C/c2ccccc2)CC1` [CBK050047], the viability at 28.5 h, 10 µM came out at 106%.

`Cc1ccc(-c2nc3ccccc3c(=O)o2)cc1C` [CBK288137]: the viability at 28.5 h, 10 µM amounted to 97.4%.

In the case of `FC(F)(F)c1ccc(OCCN2CCOCC2)nc1` [CBK113461], the viability at 28.5 h, 10 µM worked out at 101%.
